{"source": "paper PMC11173533", "about": "“Baicalin and Baicalein Enhance Cytotoxicity, Proapoptotic Activity, and Genotoxicity of Doxorubicin and Docetaxel in MCF-7 Breast Cancer Cells” (Molecules, 2024)", "key": {"[1]": {"system": "cleaved PARP in HUVEC-ST cells", "assay": "Cleaved PARP In-Cell ELISA in HUVEC-ST cells", "format": "cell-based, human", "experimental": "(§1) Unless otherwise indicated, in experiments, cells were seeded at an appropriate density for the specific assay into 96-well plates or Petri dishes. They were then incubated in standard culture conditions, which included a temperature of 37 °C, 100% relative humidity, and a 5% CO2 incubator. […] After treatment, the cells were washed with PBS and, depending on the experiment, immediately used for measurement or cultured in a fresh medium for 24 or 48 h. Control cells were treated with a corresponding volume of PBS. Additional controls for solvents were also performed.\n(§2) The expression of the protein was monitored using a target-specific primary antibody against an 85 kDa stable fragment of PARP proteolysis and a horseradish peroxidase-conjugated detection reagent.\n(§3) The amount of cleaved PARP was measured in cells according to the manufacturer’s protocol immediately after the treatment and after 24 or 48 h postincubation. The absorbance was measured at a wavelength of λ = 450. Additionally, the whole cell staining was performed with Janus Green dye, and the absorbance was measured at a wavelength of λ = 615. […] Subsequently, the values were calculated as a fold increase, which means the ratio of an increased amount of cleaved PARP to the amount of cleaved PARP in control cells."}, "MRP1": {"system": "MRP1", "set-up": "method as in PMID 15670588", "settings": "25 µmol/L; ref [65]; cited from earlier work"}, "MCF-7 cells [2]": {"system": "MCF-7 cells", "assay": "Annexin V FITC/propidium iodide double staining in MCF-7 cells", "format": "cell-based, human", "settings": "for Viable cells: docetaxel IC50 + high concentration of flavonoid", "experimental": "as §1\n(§4) This assay is based on the principle that, in viable cells, phosphatidylserine (PS) is located in the inner membrane (side facing the cytoplasm). However, upon induction of apoptosis, PS is translocated to the outer membrane (PS also appears on the necrotic cell surface). The exposed phosphatidylserine can be detected by protein Annexin V stained with FITC dye. The addition of propidium iodide (PI) enabled necrotic cells to be distinguished. Thus, this method is convenient for counting and differentiating live cells from those undergoing apoptosis or necrosis.\n(§5) The analysis was performed according to the manufacturer’s protocol on cells immediately after the treatment and 24 or 48 h postincubation. Samples were analyzed using the flow cytometer LSR® II from Becton Dickinson (San Jose, CA, USA) using an argon laser with a wavelength of λ = 488 nm."}, "MCF-7 cells [3]": {"system": "MCF-7 cells", "assay": "Alkaline comet assay in MCF-7 cells", "format": "cell-based, human", "experimental": "as §1\nThe comet assay, also known as the single-cell gel electrophoresis assay, is a highly sensitive and versatile method for measuring single- and double-stranded DNA breaks. The assay uses an electric field to move negatively charged DNA fragments through an agarose gel. The amount of migration reflects the level of DNA damage in the cells.\nThe analysis was performed under alkaline conditions, according to the method of Singh et al., on cells immediately after the treatment and 24 or 48 h postincubation. […] One hundred randomly chosen cells were analyzed on each slide using a fluorescence microscope Zeiss Axio Scope A1 (Carl Zeiss, Oberkochen, Germany) with a video camera connected to the image-analysis system Lucia-Comet v. […]"}, "HUVEC-ST cells [4]": {"system": "HUVEC-ST cells", "assay": "Cytometric measurement of doxorubicin accumulation in HUVEC-ST cells", "format": "cell-based, human", "settings": "22 h preincubation with flavonoid IC50, 1 h study period", "experimental": "The aromatic rings in the hydrophobic part of doxorubicin give the drug molecule fluorescent properties (λex = 490 nm, λem = 590 nm). Thus, the flow cytometric measurement of drug fluorescence inside the cells allows for the monitoring of its transport rate through the cell membrane. The increase in the intensity of drug fluorescence inside the cells is highly correlated with its accumulation.\nThe DOX was added to the cell suspension to achieve a final concentration equal to the IC50 value. During one hour of incubation (temp 37 °C) with the drug, samples for cytometric measurement were taken from the cell suspension after the first 5 min and then after every 10 min. Samples were analyzed using the flow cytometer LSR® II from Becton Dickinson (San Jose, CA, USA) using an argon laser with a wavelength of λ = 488 nm. Doxorubicin fluorescence intensity was calculated per single cell."}, "MRP2": {"system": "MRP2", "set-up": "method as in PMID 15670588", "settings": "25 µmol/L; ref [65]; cited from earlier work"}, "HUVEC-ST cells [5]": {"system": "HUVEC-ST cells", "assay": "Annexin V FITC/propidium iodide double staining in HUVEC-ST cells", "format": "cell-based, human", "experimental": "as §1, §4, §5"}, "MCF-7 cells [6]": {"system": "MCF-7 cells", "assay": "Mitochondrial membrane potential (JC-1) in MCF-7 cells", "format": "cell-based, human", "experimental": "as §1\nThe mitochondrial membrane potential was measured with the membrane-permeant JC-1 fluorescent probe. […] Thus, the measurement of the ratio of JC-1 dimer to monomer fluorescence can be used for estimating changes in mitochondrial membrane potential (ΔΨm).\nThe cells were then incubated in complete darkness for 30 min at 37 °C. After incubation, the cells were washed to remove the dye and suspended in fresh HBSS solution. Finally, the fluorescence intensity was measured using a Cary Eclipse spectrofluorometer (Varian, Inc.) at λex/em = 475 nm/530 nm for monomers and at λex/em = 535 nm/590 nm for dimers. Subsequently, the ratio of the fluorescence intensities at 530 nm/590 nm was calculated. The mitochondrial potential in both cell lines was measured immediately after incubation with investigated compounds. The results are expressed as a percentage of the control, considered 100%."}, "MCF-7 cell [7]": {"system": "MCF-7 cell", "set-up": "method as in Liu et al. [48]", "settings": "ref Liu et al. [48]; read-out: IC50, MCF-7 cell growth inhibition; cited from earlier work"}, "MCF-7 cell [8]": {"system": "MCF-7 cell", "set-up": "method as in Wang et al. [49]", "settings": "5–100 µmol/L for 72 h; ref Wang et al. [49]; cited from earlier work"}, "[9]": {"system": "cleaved PARP in MCF-7 cells", "assay": "Cleaved PARP In-Cell ELISA in MCF-7 cells", "format": "cell-based, human", "settings": "docetaxel + flavonoid IC50, most intense of all times and combinations", "experimental": "as §1, §2, §3"}, "[10]": {"settings": "doxorubicin IC50 + flavonoid IC50 preincubation, 48 h post-incubation"}, "[11]": {"settings": "flavonoid IC50 alone 24 h, 24 h after incubation"}, "[12]": {"settings": "flavonoid IC50 alone 24 h, 48 h after incubation"}, "[13]": {"settings": "docetaxel IC50 + flavonoid IC50, 24 h after incubation"}, "[14]": {"settings": "flavonoid alone (high concentration), 48 h after incubation"}, "[15]": {"settings": "doxorubicin IC50 after 22 h preincubation with flavonoid IC50"}, "[16]": {"settings": "flavonoid IC50 alone 24 h, control = 100%"}}, "data": [{"smiles": "O=c1cc(-c2ccccc2)oc2cc(O)c(O)c(O)c12", "note": "[baicalein, 5,6,7-Trihydroxyflavone]", "values": [{"measurement": "Amount of cleaved PARP relative to control cells", "setting": "[1]; doxorubicin + flavonoid IC50, 48 h after incubation", "value": "twice higher than in control cells"}, {"measurement": "Amount of cleaved PARP relative to control cells", "setting": "[1]; flavonoid IC50 alone, 24 and 48 h after incubation", "value": "nearly two times higher than in control cells"}, {"measurement": "Inhibition of MRP1 protein activity", "setting": "MRP1", "value": "inhibit the activity of MRP2 and MRP1 proteins"}, {"measurement": "AV+/PI− cells (undergoing apoptosis)", "setting": "MCF-7 cells [2]; [10]", "value": 21, "unit": "%"}, {"measurement": "AV+/PI− cells (undergoing apoptosis)", "setting": "MCF-7 cells [2]; [11]", "value": "~20", "unit": "%"}, {"measurement": "AV+/PI+ cells", "setting": "MCF-7 cells [2]; [12]", "value": 28, "unit": "%"}, {"measurement": "DNA in the comet tail", "setting": "MCF-7 cells [3]; [13]", "value": 16, "unit": "%"}, {"measurement": "DNA in the comet tail", "setting": "MCF-7 cells [3]; docetaxel IC50 + flavonoid IC50, immediately after incubation", "value": 19, "unit": "%"}, {"measurement": "Enhancement of doxorubicin accumulation/influx", "setting": "HUVEC-ST cells [4]", "value": "increased doxorubicin accumulation was maintained for the whole study period"}, {"measurement": "Inhibition of MRP2 protein activity", "setting": "MRP2", "value": "inhibit the activity of MRP2 and MRP1 proteins"}, {"measurement": "AV+/PI+ cells", "setting": "HUVEC-ST cells [5]; [13]", "value": 44, "unit": "%"}, {"measurement": "Change in percentage of AV+/PI− or AV+/PI+ cells vs doxorubicin alone", "setting": "HUVEC-ST cells [5]; doxorubicin IC50 + flavonoid IC50, 24 h after incubation", "value": "increased almost two-fold"}, {"measurement": "AV+/PI− cells", "setting": "HUVEC-ST cells [5]; [14]", "value": 10, "unit": "%"}, {"measurement": "Mitochondrial membrane potential ΔΨm, % of control", "setting": "MCF-7 cells [6]; docetaxel IC50 after 22 h preincubation with flavonoid IC50", "value": 18, "unit": "%"}, {"measurement": "Mitochondrial membrane potential ΔΨm, % of control", "setting": "MCF-7 cells [6]; [15]", "value": 20, "unit": "%"}, {"measurement": "Mitochondrial membrane potential ΔΨm, % of control", "setting": "MCF-7 cells [6]; [16]", "value": 30, "unit": "%"}, {"measurement": "IC50", "setting": "MCF-7 cell [7]", "value": "85.1 ± 1.26", "unit": "µM"}]}, {"smiles": "O=C(O)[C@H]1O[C@@H](Oc2cc3oc(-c4ccccc4)cc(=O)c3c(O)c2O)[C@H](O)[C@@H](O)[C@@H]1O", "note": "[baicalin, baicalein 7-O-β-D-glucuronide]", "values": [{"measurement": "Viable cells", "setting": "MCF-7 cells [2]; 24 h after incubation", "value": 22, "unit": "%"}, {"measurement": "Viable cells", "setting": "MCF-7 cells [2]; 48 h after incubation", "value": 24, "unit": "%"}, {"measurement": "AV+/PI− cells (undergoing apoptosis)", "setting": "MCF-7 cells [2]; [10]", "value": 34, "unit": "%"}, {"measurement": "AV+/PI− cells (undergoing apoptosis)", "setting": "MCF-7 cells [2]; [11]", "value": "~20", "unit": "%"}, {"measurement": "AV+/PI+ cells", "setting": "MCF-7 cells [2]; [12]", "value": 25, "unit": "%"}, {"measurement": "Inhibitory effect on MCF-7 cell proliferation", "setting": "MCF-7 cell [8]", "value": "did not observe any inhibitory effect"}, {"measurement": "Enhancement of doxorubicin accumulation/influx", "setting": "HUVEC-ST cells [4]", "value": "observed only during the first 30 min of the study"}, {"measurement": "Viable cells", "setting": "HUVEC-ST cells [5]; doxorubicin IC50 + lower concentration (IC10) of flavonoid, longest postincubation time (48 h)", "value": 55, "unit": "%"}, {"measurement": "AV+/PI+ cells", "setting": "HUVEC-ST cells [5]; [14]", "value": 30, "unit": "%"}, {"measurement": "AV+/PI− cells", "setting": "HUVEC-ST cells [5]; [14]", "value": 19, "unit": "%"}, {"measurement": "Mitochondrial membrane potential ΔΨm, % of control", "setting": "MCF-7 cells [6]; [15]", "value": 31, "unit": "%"}, {"measurement": "Mitochondrial membrane potential ΔΨm, % of control", "setting": "MCF-7 cells [6]; [16]", "value": 30, "unit": "%"}, {"measurement": "PARP cleavage, fold increase to control", "setting": "[9]", "value": 2.5, "unit": "fold"}]}]}
